Results reported in PMC6658524, “Lysosomal degradation of newly formed insulin granules contributes to β cell failure in diabetes” (Nature Communications, 2019).

What was measured:
Test in all cases: biochemical
p38γ (SAPK3) = molecular target: T1, p38γ (SAPK3) (Homo sapiens, UniProt P53778); design: Kinase inhibition by mobility shift assay (Caliper)
T1 construct: gene MAPK12

cSRC(h) = molecular target: T2, cSRC(h) (Homo sapiens, UniProt P12931); design: Eurofins KinaseProfiler panel of 60 kinases, per cent inhibition
T2 construct: gene SRC
Text: (§1) A more detailed account of the discovery, chemistry and biochemical properties of this novel class of selective p38δ inhibitors will be given elsewhere.

CaMKIIδ(h) = molecular target: T3, CaMKIIδ(h) (Homo sapiens, UniProt Q13557); design: Eurofins KinaseProfiler panel of 60 kinases, per cent inhibition
T3 construct: gene CAMK2D
Text: as §1

TrkA(h) = molecular target: T4, TrkA(h) (Homo sapiens, UniProt P04629); design: Eurofins KinaseProfiler panel of 60 kinases, per cent inhibition
T4 construct: gene NTRK1
Text: as §1

Hck(h) activated = Hck(h) activated (Homo sapiens, UniProt P08631); design: Eurofins KinaseProfiler panel of 60 kinases, per cent inhibition
Text: as §1

EGFR(h) = EGFR(h) (Homo sapiens, UniProt P00533); design: Eurofins KinaseProfiler panel of 60 kinases, per cent inhibition
Text: as §1

MAPK1(h) = molecular target: T5, MAPK1(h) (Homo sapiens, UniProt P27361); design: Eurofins KinaseProfiler panel of 60 kinases, per cent inhibition
T5 construct: gene MAPK3
Text: as §1

BTK(h) = BTK(h) (Homo sapiens, UniProt Q06187); design: Eurofins KinaseProfiler panel of 60 kinases, per cent inhibition
Text: as §1

Plk1(h) = Plk1(h) (Homo sapiens, UniProt P53350); design: Eurofins KinaseProfiler panel of 60 kinases, per cent inhibition
Text: as §1

Abl(h) = molecular target: T6, Abl(h) (Homo sapiens, UniProt P00519); design: Eurofins KinaseProfiler panel of 60 kinases, per cent inhibition
T6 construct: gene ABL1
Text: as §1

CLK2(h) = CLK2(h) (Homo sapiens, UniProt P49760); design: Eurofins KinaseProfiler panel of 60 kinases, per cent inhibition
Text: as §1

SAPK3(h) = molecular target: T7, SAPK3(h) (Homo sapiens, UniProt P53778); design: Eurofins KinaseProfiler panel of 60 kinases, per cent inhibition
T7 construct: gene MAPK12
Text: as §1

Pim-1(h) = molecular target: T8, Pim-1(h) (Homo sapiens, UniProt P11309); design: Eurofins KinaseProfiler panel of 60 kinases, per cent inhibition
T8 construct: gene PIM1
Text: as §1

[1] = molecular target: T9, PI3 Kinase (p110α/p85α)(h) (Homo sapiens, UniProt P42336); design: Eurofins KinaseProfiler panel of 60 kinases, per cent inhibition
T9 construct: gene PIK3CA; p110α/p85α
Text: as §1

CaMKI(h) = molecular target: T10, CaMKI(h) (Homo sapiens, UniProt Q14012); design: Eurofins KinaseProfiler panel of 60 kinases, per cent inhibition
T10 construct: gene CAMK1
Text: as §1

PDGFRα(h) = molecular target: T11, PDGFRα(h) (Homo sapiens, UniProt P16234); design: Eurofins KinaseProfiler panel of 60 kinases, per cent inhibition
T11 construct: gene PDGFRA
Text: as §1

BTK(h), sequence (Q06187 whole entry): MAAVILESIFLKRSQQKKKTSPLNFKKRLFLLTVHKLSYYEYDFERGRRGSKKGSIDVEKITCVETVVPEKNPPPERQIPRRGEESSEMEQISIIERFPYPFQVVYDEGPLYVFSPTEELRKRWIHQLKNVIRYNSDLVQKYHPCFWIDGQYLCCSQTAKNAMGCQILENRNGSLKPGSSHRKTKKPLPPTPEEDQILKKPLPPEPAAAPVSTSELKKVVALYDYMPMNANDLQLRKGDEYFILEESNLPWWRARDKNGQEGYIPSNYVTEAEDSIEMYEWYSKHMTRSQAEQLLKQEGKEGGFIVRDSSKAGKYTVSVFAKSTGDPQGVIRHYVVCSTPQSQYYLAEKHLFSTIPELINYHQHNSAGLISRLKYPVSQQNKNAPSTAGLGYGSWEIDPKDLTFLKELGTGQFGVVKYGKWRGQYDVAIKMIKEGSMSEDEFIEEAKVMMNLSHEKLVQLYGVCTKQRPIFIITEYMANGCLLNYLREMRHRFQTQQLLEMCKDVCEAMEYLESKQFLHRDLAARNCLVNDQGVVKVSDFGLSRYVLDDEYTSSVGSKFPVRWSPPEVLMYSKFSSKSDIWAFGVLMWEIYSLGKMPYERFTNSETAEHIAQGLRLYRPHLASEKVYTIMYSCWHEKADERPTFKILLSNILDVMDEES
Plk1(h), sequence (P53350 whole entry): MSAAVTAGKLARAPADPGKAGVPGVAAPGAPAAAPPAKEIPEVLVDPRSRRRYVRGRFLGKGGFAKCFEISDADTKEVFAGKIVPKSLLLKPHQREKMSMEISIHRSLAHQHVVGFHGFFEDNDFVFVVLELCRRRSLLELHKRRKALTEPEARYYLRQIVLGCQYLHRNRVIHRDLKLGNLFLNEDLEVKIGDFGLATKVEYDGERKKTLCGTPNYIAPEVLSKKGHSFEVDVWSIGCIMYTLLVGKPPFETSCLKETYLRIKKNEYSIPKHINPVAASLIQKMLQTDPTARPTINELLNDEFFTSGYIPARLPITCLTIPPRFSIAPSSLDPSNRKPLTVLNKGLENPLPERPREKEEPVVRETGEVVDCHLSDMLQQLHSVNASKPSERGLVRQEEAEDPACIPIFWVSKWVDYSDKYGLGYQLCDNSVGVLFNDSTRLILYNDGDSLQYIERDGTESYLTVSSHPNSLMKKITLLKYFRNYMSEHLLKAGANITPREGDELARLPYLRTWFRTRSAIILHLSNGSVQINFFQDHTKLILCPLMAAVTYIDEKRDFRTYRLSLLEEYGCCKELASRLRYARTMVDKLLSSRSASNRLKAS
T8 sequence (P11309 whole entry): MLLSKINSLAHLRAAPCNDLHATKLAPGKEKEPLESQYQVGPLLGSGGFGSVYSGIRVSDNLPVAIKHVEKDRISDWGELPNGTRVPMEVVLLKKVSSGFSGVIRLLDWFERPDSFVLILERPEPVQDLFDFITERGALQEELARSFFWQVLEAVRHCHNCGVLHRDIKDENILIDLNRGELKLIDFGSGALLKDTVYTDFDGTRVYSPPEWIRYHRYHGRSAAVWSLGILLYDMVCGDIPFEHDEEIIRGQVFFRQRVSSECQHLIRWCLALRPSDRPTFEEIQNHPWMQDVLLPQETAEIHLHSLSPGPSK
T2 sequence (P12931 whole entry): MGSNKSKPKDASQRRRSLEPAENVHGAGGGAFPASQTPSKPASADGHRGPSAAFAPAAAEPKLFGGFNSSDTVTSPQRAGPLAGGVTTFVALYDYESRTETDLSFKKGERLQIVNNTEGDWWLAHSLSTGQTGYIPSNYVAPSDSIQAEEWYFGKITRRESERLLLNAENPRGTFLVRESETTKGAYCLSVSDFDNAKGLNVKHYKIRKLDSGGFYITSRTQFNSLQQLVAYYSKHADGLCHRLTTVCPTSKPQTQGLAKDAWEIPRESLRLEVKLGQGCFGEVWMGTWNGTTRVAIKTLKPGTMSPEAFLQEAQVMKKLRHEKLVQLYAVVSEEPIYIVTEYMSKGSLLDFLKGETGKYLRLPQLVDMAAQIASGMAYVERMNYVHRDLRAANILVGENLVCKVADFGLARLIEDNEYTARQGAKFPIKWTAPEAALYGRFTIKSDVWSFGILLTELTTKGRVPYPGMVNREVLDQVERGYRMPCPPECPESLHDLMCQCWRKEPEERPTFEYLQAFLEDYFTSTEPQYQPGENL
T6 sequence (P00519 whole entry): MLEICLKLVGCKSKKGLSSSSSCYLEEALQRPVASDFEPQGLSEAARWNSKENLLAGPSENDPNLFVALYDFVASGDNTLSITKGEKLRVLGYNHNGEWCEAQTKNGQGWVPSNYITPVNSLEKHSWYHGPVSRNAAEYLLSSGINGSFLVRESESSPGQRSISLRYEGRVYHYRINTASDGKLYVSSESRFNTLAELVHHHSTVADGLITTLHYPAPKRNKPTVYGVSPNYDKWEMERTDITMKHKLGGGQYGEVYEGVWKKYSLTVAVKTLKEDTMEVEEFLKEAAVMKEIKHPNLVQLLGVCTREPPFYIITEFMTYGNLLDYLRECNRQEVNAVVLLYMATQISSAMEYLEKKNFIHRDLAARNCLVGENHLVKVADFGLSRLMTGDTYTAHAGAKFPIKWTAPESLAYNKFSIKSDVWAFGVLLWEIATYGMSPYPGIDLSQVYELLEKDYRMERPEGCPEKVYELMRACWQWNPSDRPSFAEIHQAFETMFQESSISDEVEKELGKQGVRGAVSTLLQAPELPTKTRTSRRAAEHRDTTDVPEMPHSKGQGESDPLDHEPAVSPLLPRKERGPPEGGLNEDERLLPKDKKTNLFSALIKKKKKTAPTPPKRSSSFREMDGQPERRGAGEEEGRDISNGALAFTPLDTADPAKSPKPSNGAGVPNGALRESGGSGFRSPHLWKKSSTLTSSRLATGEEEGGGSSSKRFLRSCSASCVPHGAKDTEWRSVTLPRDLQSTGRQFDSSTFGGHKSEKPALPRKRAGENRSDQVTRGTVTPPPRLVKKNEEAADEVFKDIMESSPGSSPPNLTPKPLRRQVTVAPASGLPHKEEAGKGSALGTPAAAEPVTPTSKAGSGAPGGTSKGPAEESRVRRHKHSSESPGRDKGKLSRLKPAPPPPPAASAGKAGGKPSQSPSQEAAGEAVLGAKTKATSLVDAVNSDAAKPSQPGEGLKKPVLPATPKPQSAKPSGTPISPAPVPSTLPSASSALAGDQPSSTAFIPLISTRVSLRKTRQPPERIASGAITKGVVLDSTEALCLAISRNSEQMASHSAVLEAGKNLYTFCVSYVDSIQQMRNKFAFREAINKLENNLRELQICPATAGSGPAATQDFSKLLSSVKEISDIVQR
T11 sequence (P16234 whole entry): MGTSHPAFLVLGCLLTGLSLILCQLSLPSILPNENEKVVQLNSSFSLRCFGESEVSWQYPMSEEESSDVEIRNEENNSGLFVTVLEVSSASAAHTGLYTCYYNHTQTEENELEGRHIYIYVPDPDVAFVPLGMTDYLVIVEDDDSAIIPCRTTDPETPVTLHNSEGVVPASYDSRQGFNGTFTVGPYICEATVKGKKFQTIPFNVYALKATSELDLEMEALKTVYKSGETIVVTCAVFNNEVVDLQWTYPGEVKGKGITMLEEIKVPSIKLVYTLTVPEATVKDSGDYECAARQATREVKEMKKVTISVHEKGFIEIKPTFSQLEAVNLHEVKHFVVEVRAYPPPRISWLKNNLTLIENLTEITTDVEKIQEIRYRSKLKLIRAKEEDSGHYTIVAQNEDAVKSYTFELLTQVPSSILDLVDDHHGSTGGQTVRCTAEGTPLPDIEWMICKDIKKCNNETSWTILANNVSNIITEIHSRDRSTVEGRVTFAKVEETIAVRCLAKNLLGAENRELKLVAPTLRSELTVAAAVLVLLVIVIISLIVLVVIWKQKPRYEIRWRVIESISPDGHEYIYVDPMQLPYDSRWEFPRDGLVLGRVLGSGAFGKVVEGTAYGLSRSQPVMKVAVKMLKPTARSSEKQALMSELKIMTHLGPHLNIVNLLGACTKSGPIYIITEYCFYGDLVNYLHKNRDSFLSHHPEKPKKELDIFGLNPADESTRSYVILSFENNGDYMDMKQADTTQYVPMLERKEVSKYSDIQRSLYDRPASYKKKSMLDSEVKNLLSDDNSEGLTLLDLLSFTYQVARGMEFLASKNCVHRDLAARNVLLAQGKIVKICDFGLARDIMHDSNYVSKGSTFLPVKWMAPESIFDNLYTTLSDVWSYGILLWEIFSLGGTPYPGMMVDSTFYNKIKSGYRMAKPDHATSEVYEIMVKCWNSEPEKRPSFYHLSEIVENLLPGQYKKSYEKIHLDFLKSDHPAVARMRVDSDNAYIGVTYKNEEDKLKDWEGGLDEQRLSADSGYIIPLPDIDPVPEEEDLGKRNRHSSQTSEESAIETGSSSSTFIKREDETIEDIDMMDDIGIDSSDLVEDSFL
Hck(h) activated, sequence (P08631 whole entry): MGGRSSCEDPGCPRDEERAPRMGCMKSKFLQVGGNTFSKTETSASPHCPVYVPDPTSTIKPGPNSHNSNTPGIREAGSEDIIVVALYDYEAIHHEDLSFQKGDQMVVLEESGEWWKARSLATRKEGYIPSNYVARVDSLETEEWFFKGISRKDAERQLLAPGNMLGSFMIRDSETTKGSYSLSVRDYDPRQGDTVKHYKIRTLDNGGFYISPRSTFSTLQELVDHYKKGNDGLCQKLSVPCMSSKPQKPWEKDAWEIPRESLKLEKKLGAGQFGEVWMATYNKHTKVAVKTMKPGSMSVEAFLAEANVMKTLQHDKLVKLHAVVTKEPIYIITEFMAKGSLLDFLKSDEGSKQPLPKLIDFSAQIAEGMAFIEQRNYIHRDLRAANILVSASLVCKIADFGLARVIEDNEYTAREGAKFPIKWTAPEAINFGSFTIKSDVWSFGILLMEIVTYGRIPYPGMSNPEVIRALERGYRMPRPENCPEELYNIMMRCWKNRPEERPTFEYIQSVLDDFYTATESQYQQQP

CCN1CCOc2nc(N3CCOCC3)nc(-c3ccc(NC(=O)OC)cc3)c2C1=O [Compound A]
IC50 (p38γ (SAPK3)): 710 nM | inhibition at 1 µM (cSRC(h)): -9% | inhibition at 10 µM (cSRC(h)): -12% | inhibition at 1 µM (CaMKIIδ(h)): -6% | inhibition at 10 µM (CaMKIIδ(h)): 1% | inhibition at 1 µM (TrkA(h)): -21% | inhibition at 10 µM (TrkA(h)): 5% | inhibition at 1 µM (Hck(h) activated): -5% | inhibition at 10 µM (Hck(h) activated): 5% | inhibition at 1 µM (EGFR(h)): -17% | inhibition at 10 µM (EGFR(h)): 4% | inhibition at 1 µM (MAPK1(h)): 0% | inhibition at 10 µM (MAPK1(h)): 5% | inhibition at 1 µM (BTK(h)): -1% | inhibition at 10 µM (BTK(h)): 0% | inhibition at 1 µM (Plk1(h)): 2% | inhibition at 10 µM (Plk1(h)): 11% | inhibition at 1 µM (Abl(h)): 6% | inhibition at 10 µM (Abl(h)): 8% | inhibition at 1 µM (CLK2(h)): -2% | inhibition at 10 µM (CLK2(h)): -2% | inhibition at 1 µM (SAPK3(h)): 11% | inhibition at 1 µM (Pim-1(h)): -6% | inhibition at 10 µM (Pim-1(h)): -7% | inhibition at 1 µM [1]: -1% | inhibition at 10 µM [1]: 2% | inhibition at 1 µM (CaMKI(h)): 5% | inhibition at 10 µM (CaMKI(h)): 11% | inhibition at 1 µM (PDGFRα(h)): 1% | inhibition at 10 µM (PDGFRα(h)): 0%
